Laboratory results as given in patent publication US20140206682A1, “COMPOUNDS AND COMPOSITIONS AS PDGFR KINASE INHIBITORS” (NOVARTIS PHARMACEUTICALS UK LIMITED, priority 2011, published 2014).

These molecules were tested on PDGFR (assay: Rat A10 cell proliferation assay). Conditions: Table 1; Rat A10 cells, recombinant rat PDGF-BB, CellTiter-Glo after 68 hours.
Format: cell-based
In short: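 Rat A10 cells in DMEM with 1% FBS and 10 ng/mL rat PDGF-BB, preincubated 4 h at 37 °C, then exposed to 3-fold serially diluted compound for 68 h. Viability/proliferation read as CellTiter-Glo luminescence.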

Compound	IC50
CCC[C@@H](CO)NC(=O)c1ccc(F)c(NC(=O)c2cnc3ccccn23)c1 [F110, N-(2-fluoro-5-{[(2S)-1-hydroxypentan-2-yl]carbamoyl}phenyl)imidazo[1,2-a]pyridine-3-carboxamide]	115 nM

Same assay, conditions: Table 2; Rat A10 cells, recombinant rat PDGF-BB, CellTiter-Glo after 68 hours

Compound	IC50
O=C(NC1(CO)CCCC1)c1cccc(NC(=O)c2cnc3ccccn23)c1 [F77, N-(3-{[1-(hydroxymethyl)cyclopentyl]carbamoyl}phenyl)imidazo[1,2-a]pyridine-3-carboxamide]	9450 nM
C[C@@H](CO)NC(=O)c1cccc(NC(=O)c2cnc3ccccn23)c1 [F78, N-(3-{[(2S)-1-hydroxypropan-2-yl]carbamoyl}phenyl)imidazo[1,2-a]pyridine-3-carboxamide]	> 10000 nM
CC[C@@H](CO)NC(=O)c1cccc(NC(=O)c2cnc3ccccn23)c1 [F79, N-(3-{[(2S)-1-hydroxybutan-2-yl]carbamoyl}phenyl)imidazo[1,2-a]pyridine-3-carboxamide]	> 10000 nM
CC(C)[C@H](CO)NC(=O)c1cccc(NC(=O)c2cnc3ccccn23)c1 [F80, N-(3-{[(2R)-1-hydroxy-3-methylbutan-2-yl]carbamoyl}phenyl)imidazo[1,2-a]pyridine-3-carboxamide]	> 10000 nM
O=C(N[C@H]1c2ccccc2C[C@H]1O)c1ccc(F)c(NC(=O)c2cnc3ccc(-n4ccnc4)cn23)c1 [F81, N-(2-fluoro-5-{[(1S,2R)-2-hydroxy-2,3-dihydro-1H-inden-1-yl]carbamoyl}phenyl)-6-(1H-imidazol-1-yl)imidazo[1,2-a]pyridine-3-carboxamide]	> 10000 nM
O=C(N[C@@H]1CCCC[C@@H]1O)c1ccc(F)c(NC(=O)c2cnc3ccccn23)c1 [F82, N-(2-fluoro-5-{[(1R,2S)-2-hydroxycyclohexyl]carbamoyl}phenyl)imidazo[1,2-a]pyridine-3-carboxamide]	304 nM
[2H]c1c([2H])c([2H])n2c(C(=O)Nc3cc(C(=O)N[C@@H]4c5ccccc5C[C@@H]4O)ccc3F)cnc2c1[2H] [F83, N-(2-fluoro-5-{[(1R,2S)-2-hydroxy-2,3-dihydro-1H-inden-1-yl]carbamoyl}phenyl)-5,6,7,8-tetrahydrogenioimidazo[1,2-a]pyridine-3-carboxamide]	289 nM
Cc1ccc2ncc(C(=O)Nc3cc(C(=O)N[C@@H]4c5ccc(Cl)cc5C[C@@H]4O)ccc3F)n2c1 [F84, N-(5-{[(1R,2S)-5-chloro-2-hydroxy-2,3-dihydro-1H-inden-1-yl]carbamoyl}-2-fluorophenyl)-6-methylimidazo[1,2-a]pyridine-3-carboxamide]	584 nM
Cc1ccc2ncc(C(=O)Nc3cc(C(=O)N[C@@H]4c5ccccc5C[C@@H]4O)c(Cl)cc3F)n2c1 [F85, N-(4-chloro-2-fluoro-5-{[(1R,2S)-2-hydroxy-2,3-dihydro-1H-inden-1-yl]carbamoyl}phenyl)-6-methylimidazo[1,2-a]pyridine-3-carboxamide]	4020 nM
O=C(N[C@@H](CO)c1ccccc1)c1ccc(F)c(NC(=O)c2cnc3ccccn23)c1 [F86, N-(2-fluoro-5-{[(1R)-2-hydroxy-1-phenylethyl]carbamoyl}phenyl)imidazo[1,2-a]pyridine-3-carboxamide]	1510 nM
Cc1ccc2ncc(C(=O)Nc3cc(C(=O)N[C@@H]4c5ccccc5C[C@@H]4O)c(F)cc3F)n2c1 [F87, N-(2,4-difluoro-5-{[(1R,2S)-2-hydroxy-2,3-dihydro-1H-inden-1-yl]carbamoyl}phenyl)-6-methylimidazo[1,2-a]pyridine-3-carboxamide]	2860 nM
Cc1ccc2ncc(C(=O)Nc3cc(C(=O)N[C@@H]4c5ccccc5C[C@@H]4O)c(C)cc3F)n2c1 [F88, N-(2-fluoro-5-{[(1R,2S)-2-hydroxy-2,3-dihydro-1H-inden-1-yl]carbamoyl}-4-methylphenyl)-6-methylimidazo[1,2-a]pyridine-3-carboxamide]	2190 nM
Cc1ccc2ncc(C(=O)Nc3cc(C(=O)N[C@@H]4c5cc(F)ccc5C[C@@H]4O)c(C)cc3F)n2c1 [F89, N-(2-fluoro-5-{[(1R,2S)-6-fluoro-2-hydroxy-2,3-dihydro-1H-inden-1-yl]carbamoyl}-4-methylphenyl)-6-methylimidazo[1,2-a]pyridine-3-carboxamide]	1810 nM
O=C(NCC1(CO)CCCC1)c1ccc(F)c(NC(=O)c2cnc3ccccn23)c1 [F90, N-(2-fluoro-5-({[1-(hydroxymethyl)cyclopentyl]methyl}carbamoyl)phenyl]imidazo[1,2-a]pyridine-3-carboxamide]	1760 nM
O=C(NCC1(O)CCC1)c1ccc(F)c(NC(=O)c2cnc3ccccn23)c1 [F91, N-(2-fluoro-5-{[(1-hydroxycyclobutyl)methyl]carbamoyl}phenyl)imidazo[1,2-a]pyridine-3-carboxamide]	1740 nM
CSc1ccc([C@H](O)[C@H](CO)NC(=O)c2ccc(F)c(NC(=O)c3cnc4ccccn34)c2)cc1 [F92, N-(5-{[(1S,2S)-1,3-dihydroxy-1-[4-(methylsulfanyl)phenyl]propan-2-yl]carbamoyl}-2-fluorophenyl)imidazo[1,2-a]pyridine-3-carboxamide]	283 nM
O=C(N[C@H]1CC[C@H](O)CC1)c1ccc(F)c(NC(=O)c2cnc3ccccn23)c1 [F93, N-{2-fluoro-5-[(4-hydroxycyclohexyl)carbamoyl]phenyl}imidazo[1,2-a]pyridine-3-carboxamide]	1140 nM

Compound	IC50
O=C(NC[C@@H](O)c1ccccc1)c1ccc(F)c(NC(=O)c2cnc3ccccn23)c1 [F94, N-(2-fluoro-5-{[(2S)-2-hydroxy-2-phenylethyl]carbamoyl}phenyl)imidazo[1,2-a]pyridine-3-carboxamide]	239 nM
C[C@H](NC(=O)c1ccc(F)c(NC(=O)c2cnc3ccccn23)c1)[C@@H](O)c1ccccc1 [F95, N-(2-fluoro-5-{[(1S,2S)-1-hydroxy-1-phenylpropan-2-yl]carbamoyl}phenyl)imidazo[1,2-a]pyridine-3-carboxamide]	219 nM
CSCC[C@@H](CO)NC(=O)c1ccc(F)c(NC(=O)c2cnc3ccccn23)c1 [F96, N-(2-fluoro-5-{[(2S)-1-hydroxy-4-(methylsulfanyl)butan-2-yl]carbamoyl}phenyl)imidazo[1,2-a]pyridine-3-carboxamide]	556 nM
O=C(NC[C@@H](O)c1cccc(O)c1)c1ccc(F)c(NC(=O)c2cnc3ccccn23)c1 [F97, N-(2-fluoro-5-{[(2S)-2-hydroxy-2-(3-hydroxyphenyl)ethyl]carbamoyl}phenyl)imidazo[1,2-a]pyridine-3-carboxamide]	668 nM
CC(C)(CO)NC(=O)c1ccc(F)c(NC(=O)c2cnc3ccccn23)c1 [F98, N-{2-fluoro-5-[(1-hydroxy-2-methylpropan-2-yl)carbamoyl]phenyl}imidazo[1,2-a]pyridine-3-carboxamide]	> 10000 nM
O=C(N[C@@H]1CCCC(F)(F)[C@H]1O)c1ccc(F)c(NC(=O)c2cnc3ccccn23)c1 [F99, N-(5-{[(1R,2S)-3,3-difluoro-2-hydroxycyclohexyl]carbamoyl}-2-fluorophenyl)imidazo[1,2-a]pyridine-3-carboxamide]	325 nM
O=C(NCC1(O)CCNCC1)c1ccc(F)c(NC(=O)c2cnc3ccccn23)c1 [F100, N-(2-fluoro-5-{[(4-hydroxypiperidin-4-yl)methyl]carbamoyl}phenyl)imidazo[1,2-a]pyridine-3-carboxamide]	> 9020 nM
O=C(N[C@@H](c1ccccc1)[C@H](O)CO)c1ccc(F)c(NC(=O)c2cnc3ccccn23)c1 [F101, N-(5-{[(1S,2S)-2,3-dihydroxy-1-phenylpropyl]carbamoyl}-2-fluorophenyl)imidazo[1,2-a]pyridine-3-carboxamide]	429 nM
CC(C)(O)[C@H]1CCCC[C@@H]1NC(=O)c1ccc(F)c(NC(=O)c2cnc3ccccn23)c1 [F102, N-(2-fluoro-5-{[(1S,2S)-2-(2-hydroxypropan-2-yl)cyclohexyl]carbamoyl}phenyl)imidazo[1,2-a]pyridine-3-carboxamide]	425 nM
C[C@@]1(O)CCCC[C@H]1NC(=O)c1ccc(F)c(NC(=O)c2cnc3ccccn23)c1 [F103, N-(2-fluoro-5-{[(1R,2R)-2-hydroxy-2-methylcyclohexyl]carbamoyl}phenyl)imidazo[1,2-a]pyridine-3-carboxamide]	> 10000 nM
O=C(N[C@H]1CC[C@@H](O)CC1)c1ccc(F)c(NC(=O)c2cnc3ccccn23)c1 [F104, N-{2-fluoro-5-[(4-hydroxycyclohexyl)carbamoyl]phenyl}imidazo[1,2-a]pyridine-3-carboxamide]	> 10000 nM
O=C(N[C@@H]1CCSC[C@H]1O)c1ccc(F)c(NC(=O)c2cnc3ccccn23)c1 [F105, N-(2-fluoro-5-{[(3S,4R)-3-hydroxythian-4-yl]carbamoyl}phenyl)imidazo[1,2-a]pyridine-3-carboxamide]	840 nM
CC(C)(O)[C@@H]1CCCC[C@@H]1NC(=O)c1ccc(F)c(NC(=O)c2cnc3ccccn23)c1 [F106, N-(2-fluoro-5-{[(1S,2R)-2-(2-hydroxypropan-2-yl)cyclohexyl]carbamoyl}phenyl)imidazo[1,2-a]pyridine-3-carboxamide]	813 nM
O=C(N[C@H](CO)[C@H](O)c1ccccc1)c1ccc(F)c(NC(=O)c2cnc3ccccn23)c1 [F107, N-(5-{[(1R,2R)-1,3-dihydroxy-1-phenylpropan-2-yl]carbamoyl}-2-fluorophenyl)imidazo[1,2-a]pyridine-3-carboxamide]	265 nM
Cc1ccn2c(C(=O)Nc3cc(C(=O)N[C@H]([C@@H](O)c4ccccc4)C(C)(C)O)ccc3F)cnc2c1 [F108, N-(5-{[(1S,2R)-1,3-dihydroxy-3-methyl-1-phenylbutan-2-yl]carbamoyl}-2-fluorophenyl)-7-methylimidazo[1,2-a]pyridine-3-carboxamide]	255 nM
C[C@@H]1CC[C@H](O)[C@H](C)N1CCNC(=O)c1ccc(F)c(NC(=O)c2cnc3cc(-c4ccnn4C)ccn23)c1 [F109, N-[2-fluoro-5-({2-[(2S,3S,6R)-3-hydroxy-2,6-dimethylpiperidin-1-yl]ethyl}carbamoyl)phenyl]-7-(1-methyl-1H-pyrazol-5-yl)imidazo[1,2-a]pyridine-3-carboxamide]	295 nM
